Test results published in ChEMBL document CHEMBL3885881, “DrugMatrix”.

Organism: Rattus norvegicus
Assay: DrugMatrix - Regimen: Daily Repeat
Type: toxicity, organism-based, Sprague-Dawley
Parameters: regimen Daily Repeat, gender Male, age 6-8 weeks
Settings: in vivo, po, route oral GAVAGE, vehicle .5 % CMC; for ABSOLUTE BASOPHIL / ABSOLUTE EOSINOPHIL / ABSOLUTE LYMPHOCYTE / ABSOLUTE MONOCYTE / ABSOLUTE SEGMENTED NEUTROPHIL / BASOPHIL / EOSINOPHIL / ERYTHROCYTE COUNT / HEMATOCRIT / HEMOGLOBIN / LEUKOCYTE COUNT / LYMPHOCYTE / MEAN CORPUSCULAR HEMOGLOBIN / MEAN CORPUSCULAR HEMOGLOBIN CONCENTRATION / MEAN CORPUSCULAR VOLUME / MONOCYTE / NEUTROPHIL / NUCLEATED RED BLOOD CELLS / PLATELET COUNT: tissue Blood; for ALANINE AMINOTRANSFERASE / ALBUMIN / ALKALINE PHOSPHATASE / ASPARTATE AMINOTRANSFERASE / BLOOD UREA NITROGEN / CARBON DIOXIDE / CHLORIDE / CHOLESTEROL / CREATINE PHOSPHOKINASE / CREATININE / GLUCOSE / LACTATE DEHYDROGENASE / LIPASE / PHOSPHORUS / POTASSIUM / SODIUM / TOTAL BILIRUBIN / TOTAL PROTEIN / URIC ACID: tissue Plasma
[1] = 16 mg/kg, 120 h, dose level Low, time 5 day
[2] = 94 mg/kg, 72 h, dose level High, time 3 day
[3] = 94 mg/kg, 120 h, dose level High, time 5 day

## CCOC(=O)OC(C)OC1=C(C(=O)Nc2ccccn2)N(C)S(=O)(=O)c2ccccc21 (centres undefined) [AMPIROXICAM]
[1]
  ABSOLUTE BASOPHIL: 0 CELLS/uL
  ABSOLUTE EOSINOPHIL: 0 CELLS/uL
  ABSOLUTE LYMPHOCYTE: 8819 CELLS/uL
  ABSOLUTE MONOCYTE: 212 CELLS/uL
  ABSOLUTE SEGMENTED NEUTROPHIL: 1469 CELLS/uL
  BASOPHIL: 0%
  EOSINOPHIL: 0%
  ERYTHROCYTE COUNT: 5.59 x10E6/uL
  HEMATOCRIT: 33.9%
  HEMOGLOBIN: 12.8 G/DL
  LEUKOCYTE COUNT: 10.5 x10E3/uL
  LYMPHOCYTE: 84%
  MEAN CORPUSCULAR HEMOGLOBIN: 22.9 pg
  MEAN CORPUSCULAR HEMOGLOBIN CONCENTRATION: 37.77 G/DL
  MEAN CORPUSCULAR VOLUME: 60.67 fL
  MONOCYTE: 2.33%
  NEUTROPHIL: 13.67%
  NUCLEATED RED BLOOD CELLS: 0 /100WBC
  PLATELET COUNT: 1100 x10E3/uL
  ALANINE AMINOTRANSFERASE: 50.33 u/L
  ALBUMIN: 4.2 G/DL
  ALKALINE PHOSPHATASE: 430.67 u/L
  ASPARTATE AMINOTRANSFERASE: 70.67 u/L
  BLOOD UREA NITROGEN: 13.67 mg/dL
  CARBON DIOXIDE: 26 mmol/L
  CHLORIDE: 101.67 MEQ/L
  CHOLESTEROL: 67.67 mg/dL
  CREATINE PHOSPHOKINASE: 214.67 u/L
  CREATININE: 0.26 mg/dL
  GLUCOSE: 161.33 mg/dL
  LACTATE DEHYDROGENASE: 71.67 u/L
  LIPASE: 8.67 u/L
  PHOSPHORUS: 11.93 mg/dL
  POTASSIUM: 6.36 MEQ/L
  SODIUM: 144.83 MEQ/L
  TOTAL BILIRUBIN: 0.17 mg/dL
  TOTAL PROTEIN: 6.1 G/DL
  URIC ACID: 1.73 mg/dL
[2]
  ABSOLUTE BASOPHIL: 0 CELLS/uL
  ABSOLUTE EOSINOPHIL: 73 CELLS/uL
  ABSOLUTE LYMPHOCYTE: 14276.67 CELLS/uL
  ABSOLUTE MONOCYTE: 831.33 CELLS/uL
  ABSOLUTE SEGMENTED NEUTROPHIL: 1685.67 CELLS/uL
  BASOPHIL: 0%
  EOSINOPHIL: 0.33%
  ERYTHROCYTE COUNT: 4.7 x10E6/uL
  HEMATOCRIT: 28.03%
  HEMOGLOBIN: 11.03 G/DL
  LEUKOCYTE COUNT: 16.87 x10E3/uL
  LYMPHOCYTE: 85.33%
  MEAN CORPUSCULAR HEMOGLOBIN: 23.5 pg
  MEAN CORPUSCULAR HEMOGLOBIN CONCENTRATION: 39.33 G/DL
  MEAN CORPUSCULAR VOLUME: 59.67 fL
  MONOCYTE: 5%
  NEUTROPHIL: 9.33%
  NUCLEATED RED BLOOD CELLS: 0 /100WBC
  PLATELET COUNT: 907 x10E3/uL
  ALANINE AMINOTRANSFERASE: 30 u/L
  ALBUMIN: 2.33 G/DL
  ALKALINE PHOSPHATASE: 163.67 u/L
  ASPARTATE AMINOTRANSFERASE: 53 u/L
  BLOOD UREA NITROGEN: 10 mg/dL
  CARBON DIOXIDE: 27.67 mmol/L
  CHLORIDE: 103.67 MEQ/L
  CHOLESTEROL: 107.67 mg/dL
  CREATINE PHOSPHOKINASE: 224.33 u/L
  CREATININE: 0.21 mg/dL
  GLUCOSE: 142.33 mg/dL
  LACTATE DEHYDROGENASE: 128 u/L
  LIPASE: 11.33 u/L
  PHOSPHORUS: 11.57 mg/dL
  POTASSIUM: 6.23 MEQ/L
  SODIUM: 144.1 MEQ/L
  TOTAL BILIRUBIN: 0.13 mg/dL
  TOTAL PROTEIN: 4.43 G/DL
  URIC ACID: 1.57 mg/dL
[3]
  ABSOLUTE BASOPHIL: 0 CELLS/uL
  ABSOLUTE EOSINOPHIL: 0 CELLS/uL
  ABSOLUTE LYMPHOCYTE: 17904 CELLS/uL
  ABSOLUTE MONOCYTE: 540 CELLS/uL
  ABSOLUTE SEGMENTED NEUTROPHIL: 3956 CELLS/uL
  BASOPHIL: 0%
  EOSINOPHIL: 0%
  ERYTHROCYTE COUNT: 3.63 x10E6/uL
  HEMATOCRIT: 21.55%
  HEMOGLOBIN: 8.6 G/DL
  LEUKOCYTE COUNT: 22.4 x10E3/uL
  LYMPHOCYTE: 81%
  MEAN CORPUSCULAR HEMOGLOBIN: 23.8 pg
  MEAN CORPUSCULAR HEMOGLOBIN CONCENTRATION: 40.05 G/DL
  MEAN CORPUSCULAR VOLUME: 59.25 fL
  MONOCYTE: 2.5%
  NEUTROPHIL: 16.5%
  NUCLEATED RED BLOOD CELLS: 2.5 /100WBC
  PLATELET COUNT: 1838 x10E3/uL
  ALANINE AMINOTRANSFERASE: 30 u/L
  ALBUMIN: 2.85 G/DL
  ALKALINE PHOSPHATASE: 259 u/L
  ASPARTATE AMINOTRANSFERASE: 60.5 u/L
  BLOOD UREA NITROGEN: 13 mg/dL
  CARBON DIOXIDE: 23.5 mmol/L
  CHLORIDE: 104 MEQ/L
  CHOLESTEROL: 67 mg/dL
  CREATINE PHOSPHOKINASE: 290 u/L
  CREATININE: 0.21 mg/dL
  GLUCOSE: 136.5 mg/dL
  LACTATE DEHYDROGENASE: 87 u/L
  LIPASE: 9.5 u/L
  PHOSPHORUS: 11.1 mg/dL
  POTASSIUM: 6.99 MEQ/L
  SODIUM: 141.6 MEQ/L
  TOTAL BILIRUBIN: 0.1 mg/dL
  TOTAL PROTEIN: 4.95 G/DL
  URIC ACID: 1.75 mg/dL
